{
  "source": "patent US20150165756A1",
  "about": "“STENCILS” (DTG International GmbH, priority 2011, published 2015)",
  "type_in_all_cases": "physicochemical",
  "key": {"[1]": {"test": "Solubility of compound (A) in aqueous media", "details": "room temperature", "description": "(6-Bromo-pyrazolo[1,5-a]pyrimidine-2-yl)-(1(R)-methyl-3,4-dihydro-1H-isoquinoline-2-yl)-methanone, and which is of particular interest and has the formula (A) as described above. This compound (A) is the R-enantiomer, but both isomers (R and S) were prepared by classical chemical synthesis. The compound (A) was tested in various compositions (formulations) inter alia for CNS-applications. The compound (A) is a small molecule having a molecular weight of about 360 g/Mol, but is very little soluble in aqueous media at room temperature (about 0.001 to 0.01 mg/ml)."}, "[2]": {"test": "Octanol/water partition coefficient (log P)", "excerpt": "The octanol/water partition coefficient (log P) of the compounds tested according to this invention can e.g. be determined by accepted standard methods, such as OECD guideline (July 1995), “Test No. 107: Partition Coefficient (n-octanol/water): Shake Flask Method”, OECD Guidelines for the Testing of Chemicals, Section 1: Physical-Chemical properties, OECD Publishing. The log P value may also be determined according to the Draft OECD guideline OECD (2000), see OECD Draft guideline for the Testing of Chemicals: 122 Partition Coefficient (n-Octanol/Water): pH-Metric Method for Ionisable Substances.\nCompound (A) can be formulated together with various oily components (C) as aqueous based, liquid compositions with higher concentration of the drug substance. These formulations can be easily applied to different animal species and human beings via application routes like the parenteral route. The compound (A) is a lipophilic compound with limited wettability and solubility in aqueous media. The lipophilicity can be expressed by the log P value, which is approximately 3 for compound (A)."}, "[3]": {"test": "Maximal solubility in oily components (mixing, PTFE filtration, HPLC analysis)", "details": "oil or lipid, thermodynamic from solid", "description": "As pyrazolopyrimidine component, (6-Bromo-pyrazolo[1,5-a]-pyrimidine-2-yl)-(1(R)-methyl-3,4-dihydro-1H-isoquinoline-2-yl)-methanone was formulated with various oily components with higher concentrations of the drug substance using specific amounts of oily components (C). The following compositions were prepared by mixing the respective oily component (C) and the pyrazolopyrimidine compound, followed by filtration (PTFE-filter) and then analysis by High Performance Liquid Chromatography.\nA liquid mixture was prepared by using 100 g of soybean oil and 100 g of MCT. The soybean oil is commercially available by Caelo (Caesar & Lorenz GmbH, Hilden, Germany). The component MCT is also commercially available (e.g. by Caelo). The solubility of compound (A) in this 50:50 (w/w) mixture of two oily components (C1) and (C2) was tested. Three different compositions were prepared (containing 1 mg/ml, 1.5 mg/ml and 2.0 mg/ml) of compound (A)."}, "[4]": {"test": "Stability of emulsions with soybean oil/MCT oily component (Example 3)", "details": "oily component comprising soybean oil and MCT", "description": "The oily phase containing the compound (A) was then mixed with an emulsifier (1%-3% by weight) of e.g. Lipoid S 75 Lipoid GmbH Germany, and afterwards with the aqueous phase containing a small amount (2.5% by weight) of a tonicity adjusting agent (Glycerol).\nDifferent compositions were prepared containing about 10% to 20% of the oily component (C) and about 70 to 90% of water. These compositions were mixed by using an Ultra-Turrax-homogenizer followed by one to 10 cycles of high pressure homogenisation. These emulsions prepared are then characterized by microscopic analysis and by dynamic light-scattering methods (Horiba LB 500). Furthermore, laser diffraction experiments were made with the emulsions ([…]) and electro-acoustic experiments were performed (Dispersion Technology DT 300; Malvern Zetasizer Nano ZS).\nBy using the above-mentioned oily component (comprising soybean oil and MCT), it was possible to prepare stable emulsions of compound (A) containing up to 2 mg of compound (A) per ml of the emulsion. The stability of the emulsions prepared with compound (A) can be described by the Zeta-function which describes the degree of repulsion of particles having similar charges. The Zeta-potential of the emulsions were tested by acoustic and optical methods described in the literature."}},
  "data": [
    {"smiles": "C[C@@H]1c2ccccc2CCN1C(=O)c1cc2ncc(Br)cn2n1", "note": "[Compound (A), (6-Bromo-pyrazolo[1,5-a]pyrimidine-2-yl)-(1(R)-methyl-3,4-dihydro-1H-isoquinoline-2-yl)-methanone]", "values": [
      {"measurement": "solubility", "setting": "[1]", "result": "0.001 to 0.01", "unit": "mg/mL"},
      {"measurement": "logP", "setting": "[2]", "result": "~3"},
      {"measurement": "solubility", "setting": "[3]; 50:50 (w/w) mixture of soybean oil and MCT, read-out: maximum solubility in mixture of oily components", "result": 8, "unit": "mg/mL"},
      {"measurement": "solubility", "setting": "[3]; 25° C., MCT, read-out: maximal solubility in MCT", "result": 12, "unit": "mg/mL"},
      {"measurement": "solubility", "setting": "[3]; 25° C., castor oil, read-out: maximal solubility in castor oil", "result": 47, "unit": "mg/mL"},
      {"measurement": "solubility", "setting": "[3]; 25° C., olive oil, read-out: maximal solubility in olive oil", "result": 6, "unit": "mg/mL"},
      {"measurement": "solubility", "setting": "[3]; 25° C., soybean oil, read-out: maximal solubility in soybean oil", "result": 7, "unit": "mg/mL"},
      {"measurement": "content of compound (A) in stable emulsions", "setting": "[4]", "result": "up to 2 mg per ml"}
    ]}
  ]
}
